Laboratory results: US20060069132A1, “Azolecarboxamide herbicides” (priority 2004, published 2006)

Assays:
rice = test: Test B flooded paddy test; format: in vivo, Oryza sativa; details: scale 0 to 100 (0 no effect, 100 complete control)
How it was run: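 Plants grow to 1- to 4-leaf stage (2–18 cm) for postemergence spraying, or to 2-leaf stage for the paddy test. Formulated compound is applied. Greenhouse holding lasts 13–15 days. Response is scored visually relative to controls, 0 no effect to 100 complete control; a dash means no result.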

wheat = test: Test B postemergence herbicide test; format: in vivo, Triticum aestivum; set-up: key to Wheat plant response rating: 0 = no effect, 100 = complete control
How it was run: (§1)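 Treated at 2-leaf (paddy) or 1–4-leaf, 2–18 cm (postemergence); greenhouse 13–15 d; visual score vs control, 0 none to 100 complete control; dash = not tested.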

corn = test: Test B pre-/postemergence herbicide test; format: in vivo, Zea mays
How it was run: (§2)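 Pre: seeds sown, then sprayed. Post: 1–4-leaf plants (2–18 cm) sprayed at the same time. Paddy: flooded, treated at 2-leaf stage. Formulation: non-phytotoxic solvent with surfactant. Greenhouse 13–15 days; visual 0–100 score relative to controls.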

wild oat = test: Test B postemergence herbicide test; format: in vivo, Avena fatua
How it was run: as §1

giant foxtail = test: Test B pre-/postemergence herbicide test; format: in vivo, Setaria faberi
How it was run: as §2

pigweed = test: Test B pre-/postemergence herbicide test; format: in vivo, Amaranthus retroflexus
How it was run: as §2

morningglory = test: Test B pre-/postemergence herbicide test; format: in vivo, Ipomoea coccinea
How it was run: (§3)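 Response was scored visually 13 to 15 days after treatment against untreated greenhouse controls, 0 meaning no effect and 100 complete control. Formulations (solvent mixture plus surfactant) went onto soil after planting, onto foliage of 1- to 4-leaf plants, and onto 2-leaf plants in a flooded paddy set including rice and barnyardgrass.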

barnyardgrass [1] = test: Test B pre-/postemergence herbicide test; format: in vivo, Echinochloa crus-galli
How it was run: as §3

cocklebur = test: Test B pre-/postemergence herbicide test; format: in vivo, Xanthium strumarium
How it was run: as §3

Surinam grass = test: Test B pre-/postemergence herbicide test; format: in vivo, Urochloa decumbens
How it was run: as §2

ducksalad = test: Test B flooded paddy test; format: in vivo, Heteranthera limosa; details: scale 0 to 100 (0 no effect, 100 complete control)
How it was run: (§4)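 Visual control ratings, 0–100 versus untreated controls, taken after 13 to 15 days in the greenhouse. Blackgrass received a postemergence spray at the 1- to 4-leaf stage (2–18 cm); ducksalad, umbrella sedge and barnyardgrass were flooded-paddy treated at 2 leaves.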

large crabgrass = test: Test B pre-/postemergence herbicide test; format: in vivo, Digitaria sanguinalis
How it was run: as §2

[2] = test system: small flower umbrella sedge; test: Test B flooded paddy test; format: in vivo, Cyperus difformis; details: scale 0 to 100 (0 no effect, 100 complete control)
How it was run: as §4

lambsquarters = test: Test B pre-/postemergence herbicide test; format: in vivo, Chenopodium album
How it was run: as §2

velvetleaf = test: Test B pre-/postemergence herbicide test; format: in vivo, Abutilon theophrasti
How it was run: as §2

blackgrass = test: Test B postemergence herbicide test; format: in vivo, Alopecurus myosuroides
How it was run: as §4

barnyardgrass [3] = test: Test B flooded paddy test; format: in vivo, Echinochloa crus-galli; details: scale 0 to 100 (0 no effect, 100 complete control)
How it was run: as §4

[4] = 1000 g ai/ha, visual rating, 13 to 15 days
[5] = postemergence, 500 g ai/ha, visual rating, scale 0 (no effect) to 100 (complete control)
[6] = postemergence, 62 g ai/ha, scale 0 to 100
[7] = 500 g ai/ha, visual rating 0-100, 0 no effect, 100 complete control, preemergence
[8] = Postemergence, 500 g ai/ha, scale 0 (no effect) to 100 (complete control)
[9] = postemergence, 125 g ai/ha, scale 0 to 100
[10] = 125 g ai/ha, 0 is no effect, 100 is complete control, preemergence

In the case of `C=CCn1nc(C(C)(C)C)cc1C(=O)Nc1cccc(C(C)=O)c1` [Compound 129], the “Rice plant response rating” value (rice; [4]) is reported as 10, the “Wheat plant response rating” value (wheat; [5]) is reported as 0 and the “Wheat plant response rating” value (wheat; [6]) is reported as 0. For the same molecule, the “Plant response rating, Corn” value (corn; [7]) was 0, the “Oat, Wild plant response rating” value (wild oat; [5]) was 0 and the “Oat, Wild plant response rating” value (wild oat; [6]) was 0. For the same molecule, the “Plant response rating, Foxtail, Giant” value (giant foxtail; [7]) was 20, the “Foxtail, Giant plant response rating” value (giant foxtail; [5]) was 10 and the “Foxtail, Giant plant response rating” value (giant foxtail; [6]) was 10. For the same molecule, the “Plant response rating, Pigweed” value (pigweed; [7]) was 30, the “Pigweed plant response rating” value (pigweed; [5]) was 10 and the “Pigweed plant response rating” value (pigweed; [6]) was 0. The “Plant response rating, Morningglory” value (morningglory; [7]) was 0, the “Plant response rating, Barnyardgrass” value (barnyardgrass [1]; [7]) was 60 and the “Barnyardgrass plant response rating” value (barnyardgrass [1]; [5]) was 0. For the same molecule, the “Barnyardgrass plant response rating” value (barnyardgrass [1]; [6]) was 0, the “Plant response rating, Cocklebur” value (cocklebur; [7]) was 20 and the “Cocklebur plant response rating” value (cocklebur; [5]) was 60. The “Cocklebur plant response rating” value (cocklebur; [6]) was 60, the “Plant response rating, Surinam Grass” value (Surinam grass; [7]) was 10 and the “Surinam Grass plant response rating” value (Surinam grass; [5]) was 20. The “Surinam Grass plant response rating” value (Surinam grass; [6]) was 0, the “Ducksalad plant response rating” value (ducksalad; [4]) was 70 and the “Plant response rating, Crabgrass, Large” value (large crabgrass; [7]) was 90. For the same molecule, the “Crabgrass, Large plant response rating” value (large crabgrass; [5]) was 10, the “Crabgrass, Large plant response rating” value (large crabgrass; [6]) was 0 and the “Sedge, Umbrella plant response rating” value [2, 4] was 80. The “Plant response rating, Lambsquarters” value (lambsquarters; [7]) was 20, the “Lambsquarters plant response rating” value (lambsquarters; [5]) was 10 and the “Lambsquarters plant response rating” value (lambsquarters; [6]) was 0. The “Plant response rating, Velvetleaf” value (velvetleaf; [7]) was 10, the “Velvetleaf plant response rating” value (velvetleaf; [5]) was 20 and the “Velvetleaf plant response rating” value (velvetleaf; [6]) was 0. The “Blackgrass plant response rating” value (blackgrass; [5]) was 0, the “Blackgrass plant response rating” value (blackgrass; [6]) was 0 and the “Barnyardgrass plant response rating” value (barnyardgrass [3]; [4]) was 30.

In the case of `CC(C)(C)n1nc(Br)c(C(=O)Nc2cccc(C(=O)N3CC=CC3)c2)n1` [Compound 433], the “Rice plant response rating” value (rice; 125 g ai/ha) is reported as 0, the “Wheat plant response rating” value (wheat; 500 g ai/ha, scale 0 to 100, 0 no effect, 100 complete control, preemergence) is reported as 50 and the “Wheat plant response rating” value (wheat; [8]) is reported as 50. The “Wheat plant response rating” value (wheat; [9]) was 40, the “Plant response rating (0 to 100 scale), Corn” value (corn; [10]) was 10 and the “Corn plant response rating” value (corn; [8]) was 30. For the same molecule, the “Corn plant response rating” value (corn; [9]) was 20, the “Oat, Wild plant response rating” value (wild oat; [8]) was 60 and the “Oat, Wild plant response rating” value (wild oat; [9]) was 50. The “Plant response rating (0 to 100 scale), Foxtail, Giant” value (giant foxtail; [10]) was 60, the “Foxtail, Giant plant response rating” value (giant foxtail; [8]) was 40 and the “Foxtail, Giant plant response rating” value (giant foxtail; [9]) was 30. The “Plant response rating (0 to 100 scale), Pigweed” value (pigweed; [10]) was 100, the “Pigweed plant response rating” value (pigweed; [8]) was 70 and the “Pigweed plant response rating” value (pigweed; [9]) was 50. The “Plant response rating (0 to 100 scale), Morningglory” value (morningglory; [10]) was 40, the “Morningglory plant response rating” value (morningglory; [8]) was 80 and the “Morningglory plant response rating” value (morningglory; [9]) was 50. For the same molecule, the “Plant response rating (0 to 100 scale), Barnyardgrass” value (barnyardgrass [1]; [10]) was 50, the “Barnyardgrass plant response rating” value (barnyardgrass [1]; Postemergence, 125 g ai/ha, scale 0 (no effect) to 100 (complete control)) was 10 and the “Barnyardgrass plant response rating” value (barnyardgrass [1]; [8]) was 20. For the same molecule, the “Plant response rating (0 to 100 scale), Cocklebur” value (cocklebur; [10]) was 10, the “Cocklebur plant response rating” value (cocklebur; [8]) was 90 and the “Cocklebur plant response rating” value (cocklebur; [9]) was 40. For the same molecule, the “Plant response rating (0 to 100 scale), Surinam Grass” value (Surinam grass; [10]) was 20, the “Surinam Grass plant response rating” value (Surinam grass; [8]) was 30 and the “Surinam Grass plant response rating” value (Surinam grass; [9]) was 20. For the same molecule, the “Ducksalad plant response rating” value (ducksalad; 125 g ai/ha) was 60, the “Plant response rating (0 to 100 scale), Crabgrass, Large” value (large crabgrass; [10]) was 90 and the “Crabgrass, Large plant response rating” value (large crabgrass; [8]) was 30. For the same molecule, the “Crabgrass, Large plant response rating” value (large crabgrass; [9]) was 20, the “Sedge, Umbrella plant response rating” value ([2]; 125 g ai/ha) was 70 and the “Plant response rating (0 to 100 scale), Lambsquarters” value (lambsquarters; [10]) was 70. The “Lambsquarters plant response rating” value (lambsquarters; [8]) was 80, the “Lambsquarters plant response rating” value (lambsquarters; [9]) was 40 and the “Plant response rating (0 to 100 scale), Velvetleaf” value (velvetleaf; [10]) was 40. For the same molecule, the “Velvetleaf plant response rating” value (velvetleaf; [8]) was 50, the “Velvetleaf plant response rating” value (velvetleaf; [9]) was 10 and the “Blackgrass plant response rating” value (blackgrass; [8]) was 40. The “Blackgrass plant response rating” value (blackgrass; [9]) was 30 and the “Barnyardgrass plant response rating” value (barnyardgrass [3]; 125 g ai/ha) was 30.
